The source of these data is US10611740B2, “Aryl dihydro-2H-benzo[b][1,4]oxazine sulfonamide and related compounds for use as agonists of RORγ and the treatment of disease” (Lycera Corporation, priority 2015, dated 2020).

One test has as its target T1, RORγ-LBD (Homo sapiens, UniProt P51449).
T1 construct: made in house; host or cells: SF9 cells (baculovirus)
T1 sequence (P51449 269-508 limits assumed): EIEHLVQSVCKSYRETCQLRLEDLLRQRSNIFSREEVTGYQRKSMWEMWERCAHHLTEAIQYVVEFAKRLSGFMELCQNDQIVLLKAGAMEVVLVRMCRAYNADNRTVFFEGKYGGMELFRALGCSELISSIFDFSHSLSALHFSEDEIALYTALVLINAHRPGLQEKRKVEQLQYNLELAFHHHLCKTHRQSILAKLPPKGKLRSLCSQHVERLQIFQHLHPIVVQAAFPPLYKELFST
Description: RORγ-Ligand Binding Domain (LBD) TR-FRET Assay.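 For TR-FRET Assay Max Response: 665/615 nm ratio relative to signal without ursolic acid or compound set at 100.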 In kind it is biochemical. The method in brief:
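His-tagged RORγ-LBD from SF9 baculovirus lysate, ~3 nM final, in 50 mM Tris pH 7.0, 50 mM KCl, 1 mM EDTA, 0.1 mM DTT, 0.01% BSA. Biotinylated SRC1 LXXLL peptide at 200 nM final with 2 μM ursolic acid; TR-FRET read-out, 1% DMSO final.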
(In general: In TR-FRET formats the signal depends on donor and acceptor labels being close together.)

A further test deals with T2, Gal4-RORγ-LBD (Homo sapiens, UniProt P51449).
T2 construct: expressed in transfected cells; host or cells: HEK-293 cells (pcDNA3.1neo plasmid)
T2 sequence (P51449 269-508 limits assumed): T1 sequence (P51449 269-508 limits assumed)
Description: Gal4-RORγ Luciferase Reporter Assay in HEK-293T Cells. Conditions: HEK-293 cells. Format: cell-based. The method in brief: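 HEK-293 cells were transiently co-transfected with Gal4-RORγ-LBD and pGL4.31 Gal4-luciferase, with ursolic acid added at 2 μM final. Compounds were incubated overnight at 37° C. in 0.2% DMSO and luminescence read with One-Glo. Max Response is the upper plateau of a 4-parameter logistic fit, with signal lacking ursolic acid or compound set to 100.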

Where [1] appears, read: luciferase reporter, with 2 μM ursolic acid.

In general, EC50 refers to the midpoint of the concentration-response curve. A higher EC50 goes with weaker potency. Turning to `CC(C)(C[C@H]1CN(S(=O)(=O)c2cccc(C(F)(F)F)c2)c2cc(-c3cccc(C(F)(F)F)c3)ccc2O1)C(=O)O` [Compound 32O, (S)-2,2-dimethyl-3-(6-(3-(trifluoromethyl)phenyl)-4-((3-(trifluoromethyl)phenyl)sulfonyl)-3,4-dihydro-2H-benzo[b][1,4]oxazin-2-yl)propanoic acid], at RORγ-LBD, the EC50 is less than 500 nM and the “TR-FRET Assay Max Response” value is “**** (The symbol “****” indicates a value greater than 200)”. At Gal4-RORγ-LBD (setting [1]), the EC50 was less than 500 nM and the “Gal4-RORγ Assay Max Response” value is “* (The symbol “*” indicates a value in the range of 25 to 90)”.
Consider `Cc1cccc(-c2ccc3c(c2)N(S(=O)(=O)c2cccc(C(F)(F)F)c2)C[C@H](CCC(=O)O)O3)c1` [Compound 2Q, (S)-3-(6-(m-tolyl)-4-((3-(trifluoromethyl)phenyl)-sulfonyl)-3,4-dihydro-2H-benzo[b][1,4]oxazin-2-yl)propanoic acid], for which, at RORγ-LBD, the EC50 is less than 500 nM and the “TR-FRET Assay Max Response” value is on record as “*** (The symbol “***” indicates a value in the range of greater than 150 to 200)”. Moreover, at Gal4-RORγ-LBD (setting [1]), the 50% effective concentration (EC50) is less than 500 nM and the “Gal4-RORγ Assay Max Response” value was “*** (The symbol “***” indicates a value in the range of greater than 150 to 200)”.
For the compound `CC(C)c1cccc(S(=O)(=O)N2C[C@H](CCc3n[nH]c(=O)o3)Oc3ccc(-c4cccc(N(C)C)n4)cc32)c1` [Compound 28F, (S)-5-(2-(6-(6-(dimethylamino)-pyridin-2-yl)-4-((3-isopropyl-phenyl)sulfonyl)-3,4-dihydro-2H-benzo[b][1,4]oxazin-2-yl)ethyl)-1,3,4-oxadiazol-2(3H)-one], on RORγ-LBD, the concentration giving a half-maximal response (EC50) was less than 500 nM and the “TR-FRET Assay Max Response” value is on record as “**** (The symbol “****” indicates a value greater than 200)”. In addition, on Gal4-RORγ-LBD (setting [1]), the EC50 is less than 500 nM and the “Gal4-RORγ Assay Max Response” value is reported as “** (The symbol “**” indicates a value in the range of greater than 90 to 150)”.
For `CC(C)(CO)C(=O)NC[C@H]1CN(S(=O)(=O)c2cccc(C(F)(F)F)c2)c2cc(-c3cc(F)cc(OC(F)F)c3)ccc2O1` [Compound 30DH, (S)-N-((6-(3-(difluoromethoxy)-5-fluorophenyl)-4-((3-(trifluoro-methyl)phenyl)sulfonyl)-3,4-dihydro-2H-benzo[b][1,4]-oxazin-2-yl)methyl)-3-hydroxy-2,2-dimethylpropanamide], on RORγ-LBD, the half-maximal effective concentration (EC50) was less than 500 nM and the “TR-FRET Assay Max Response” value is reported as “*** (The symbol “***” indicates a value in the range of greater than 150 to 200)”. In addition, at Gal4-RORγ-LBD (2 μM ursolic acid), the 50% effective concentration (EC50) is less than 500 nM and the “Gal4-RORγ Assay Max Response” value is “* (The symbol “*” indicates a value in the range of 25 to 90)”.
In the case of `CC[C@H](C[C@H]1CN(S(=O)(=O)c2cccc(C(F)(F)F)c2)c2cc(-c3cc(F)cc(F)c3Cl)ccc2O1)C(=O)O` [Compound 46F, (R)-2-(((S)-6-(2-chloro-3,5-difluorophenyl)-4-((3-(trifluoro-methyl)phenyl)sulfonyl)-3,4-dihydro-2H-benzo[b][1,4]oxazin-2-yl)methyl)butanoic acid], at RORγ-LBD, the EC50 was less than 500 nM and the “TR-FRET Assay Max Response” value was “*** (The symbol “***” indicates a value in the range of greater than 150 to 200)”. Moreover, at Gal4-RORγ-LBD (2 μM ursolic acid), the EC50 lay within 500 to 5000 nM and the “Gal4-RORγ Assay Max Response” value is on record as “* (The symbol “*” indicates a value in the range of 25 to 90)”.
Consider `O=C(NC[C@H]1CN(S(=O)(=O)c2cccc(C(F)(F)F)c2)c2cc(-c3cc(F)ccc3F)ccc2O1)C1CCCC1` [Compound 30AZ, (S)-N-((6-(2,5-difluorophenyl)-4-((3-(trifluoromethyl)phenyl)-sulfonyl)-3,4-dihydro-2H-benzo-[b][1,4]oxazin-2-yl)methyl)-cyclopentanecarboxamide], for which, on RORγ-LBD, the concentration for a half-maximal effect (EC50) is less than 500 nM and the “TR-FRET Assay Max Response” value is “**** (The symbol “****” indicates a value greater than 200)”. Further, at Gal4-RORγ-LBD (setting [1]), the concentration giving a half-maximal response (EC50) was less than 500 nM and the “Gal4-RORγ Assay Max Response” value is listed as “** (The symbol “**” indicates a value in the range of greater than 90 to 150)”.
As for `CC(C)(C[C@@H]1CN(S(=O)(=O)c2cccc(C(F)(F)F)c2)c2cc(-c3cc(F)ccc3F)ccc2O1)C(=O)O` [Compound 52, (R)-3-(6-(2,5-difluorophenyl)-4-((3-(trifluoromethyl)phenyl)sulfonyl)-3,4-dihydro-2H-benzo[b][1,4]oxazin-2-yl)-2,2-dimethylpropanoic Acid], on RORγ-LBD, the EC50 was less than 500 nM and the “TR-FRET Assay Max Response” value is reported as “** (The symbol “**” indicates a value in the range of greater than 90 to 150)”. On Gal4-RORγ-LBD (2 μM ursolic acid), the concentration giving a half-maximal response (EC50) is 500 to 5000 nM and the “Gal4-RORγ Assay Max Response” value is recorded as “* (The symbol “*” indicates a value in the range of 25 to 90)”.
As for `O=C(O)CC[C@H]1CN(S(=O)(=O)c2cccc(C(F)(F)F)c2)c2cc(-c3cccc(Cl)n3)ccc2O1` [Compound 4I, (S)-3-(6-(6-chloropyridin-2-yl)-4-((3-(trifluoromethyl)phenyl)-sulfonyl)-3,4-dihydro-2H-benzo[b][1,4]oxazin-2-yl)propanoic acid], at RORγ-LBD, the EC50 was less than 500 nM and the “TR-FRET Assay Max Response” value is reported as “*** (The symbol “***” indicates a value in the range of greater than 150 to 200)”. At Gal4-RORγ-LBD (setting [1]), the concentration giving a half-maximal response (EC50) was less than 500 nM and the “Gal4-RORγ Assay Max Response” value is “** (The symbol “**” indicates a value in the range of greater than 90 to 150)”.
In the case of `COc1cc(S(=O)(=O)N2C[C@H](CNS(=O)(=O)N(C)CCO)Oc3ccc(-c4cc(F)ccc4F)cc32)ccc1F` [Compound 45D, ([[(2S)-6-(2,5-difluorophenyl)-4-[[4-fluoro-3-methoxy-benzene]-sulfonyl]-3,4-dihydro-2H-1,4-benzoxazin-2-yl]methyl]sulfamoyl)-(N-methyl-N-2-hydroxyethyl)-amine], at RORγ-LBD, the concentration for a half-maximal effect (EC50) is less than 500 nM and the “TR-FRET Assay Max Response” value is “*** (The symbol “***” indicates a value in the range of greater than 150 to 200)”. On Gal4-RORγ-LBD (2 μM ursolic acid), the 50% effective concentration (EC50) is less than 500 nM and the “Gal4-RORγ Assay Max Response” value was “* (The symbol “*” indicates a value in the range of 25 to 90)”.
On to `COc1cc(F)cc(-c2ccc3c(c2)N(S(=O)(=O)c2cccc(C(F)(F)F)c2)C[C@H](CC2(C(=O)O)COC2)O3)c1F` [Compound 51C, (S)-3-((6-(2,5-difluoro-3-methoxyphenyl)-4-((3-(trifluoromethyl)phenyl)sulfonyl)-3,4-dihydro-2H-benzo[b][1,4]oxazin-2-yl)methyl)oxetane-3-carboxylic acid], for which, on RORγ-LBD, the EC50 was less than 500 nM and the “TR-FRET Assay Max Response” value is “** (The symbol “**” indicates a value in the range of greater than 90 to 150)”. At Gal4-RORγ-LBD (2 μM ursolic acid), the EC50 was less than 500 nM and the “Gal4-RORγ Assay Max Response” value is recorded as “** (The symbol “**” indicates a value in the range of greater than 90 to 150)”.
For the compound `CC(=O)N1CC(C[C@H]2CN(S(=O)(=O)c3cccc(C(F)(F)F)c3)c3cc(-c4cc(F)ccc4F)ccc3O2)C1` [Compound 62, (S)-1-(3-((6-(2,5-difluorophenyl)-4-((3-(trifluoromethyl)phenyl)sulfonyl)-3,4-dihydro-2H-benzo[b][1,4]oxazin-2-yl)methyl)azetidin-1-yl)ethan-1-one], at RORγ-LBD, the EC50 is less than 500 nM and the “TR-FRET Assay Max Response” value is “** (The symbol “**” indicates a value in the range of greater than 90 to 150)”. Further, on Gal4-RORγ-LBD (2 μM ursolic acid), the EC50 was less than 500 nM and the “Gal4-RORγ Assay Max Response” value is on record as “** (The symbol “**” indicates a value in the range of greater than 90 to 150)”.
`CC(=O)NC1(C[C@H]2CN(S(=O)(=O)c3cccc(C(F)(F)F)c3)c3cc(-c4cccc(C(F)(F)F)n4)ccc3O2)COC1` [Compound 51M, (S)-N-(3-((4-((3-(trifluoromethyl)-phenyl)sulfonyl)-6-(6-(trifluoromethyl)pyridin-2-yl)-3,4-dihydro-2H-benzo[b][1,4]oxazin-2-yl)methyl)oxetan-3-yl)acetamide]: at RORγ-LBD, the EC50 was less than 500 nM and the “TR-FRET Assay Max Response” value is on record as “*** (The symbol “***” indicates a value in the range of greater than 150 to 200)”. At Gal4-RORγ-LBD (2 μM ursolic acid), the 50% effective concentration (EC50) was less than 500 nM and the “Gal4-RORγ Assay Max Response” value is recorded as “** (The symbol “**” indicates a value in the range of greater than 90 to 150)”.
On to `O=C(O)CC[C@H]1CN(S(=O)(=O)c2cccc(C(F)(F)F)c2)c2cc(-c3cccc(OC(F)F)c3)ccc2O1` [Compound 4T, (S)-3-(6-(3-(difluoromethoxy)-phenyl)-4-((3-(trifluoromethyl)-phenyl)sulfonyl)-3,4-dihydro-2H-benzo[b][1,4]oxazin-2-yl)propanoic acid], for which, on RORγ-LBD, the concentration giving a half-maximal response (EC50) was less than 500 nM and the “TR-FRET Assay Max Response” value is listed as “**** (The symbol “****” indicates a value greater than 200)”. Also, at Gal4-RORγ-LBD (setting [1]), the half-maximal effective concentration (EC50) is less than 500 nM and the “Gal4-RORγ Assay Max Response” value is given as “**** (The symbol “****” indicates a value greater than 200)”.
Take `CC(C)(C[C@H]1CN(S(=O)(=O)c2cccc(C(F)(F)F)c2)c2cc(-c3cc(F)cc(Cl)c3)ccc2O1)C(=O)O` [Compound 32Y, (S)-3-(6-(3-chloro-5-fluoro-phenyl)-4-((3-(trifluoromethyl)-phenyl)sulfonyl)-3,4-dihydro-2H-benzo[b][1,4]oxazin-2-yl)-2,2-dimethylpropanoic acid]: on RORγ-LBD, the concentration giving a half-maximal response (EC50) was less than 500 nM and the “TR-FRET Assay Max Response” value was “*** (The symbol “***” indicates a value in the range of greater than 150 to 200)”. For the same compound, on Gal4-RORγ-LBD (2 μM ursolic acid), the EC50 was less than 500 nM and the “Gal4-RORγ Assay Max Response” value is “** (The symbol “**” indicates a value in the range of greater than 90 to 150)”.
